From the NIST ThermoML archive (doi:10.1021/acs.jced.8b00157)
Values joined by “and” are separate entries in the source; they are usually repeats but may differ in a detail not shown here. Equal values may be shown once. ± gives the expanded uncertainty stated by the source.

Experiment: an = ratio of the nth substance listed
Details: 100 kPa, Liquid, Buoyancy - hydrostatic balance, a2 = 1.7

[F][Al]([F])[F] [aluminum fluoride] + [F-].[K+]
Details	mass density
1188.2 K	1843 ± 10 kg/m3
1188.4 K	1842 ± 11 kg/m3
1188.6 K	1842 ± 10 kg/m3
1189.2 K	1841 ± 10 kg/m3
1189.7 K	1841 ± 11 kg/m3
1189.8 K	1841 ± 10 kg/m3
1190.6 K	1840 ± 10 kg/m3
1190.7 K	1840 ± 10 kg/m3
1190.9 K	1840 ± 10 kg/m3
1191.6 K	1839 ± 10 kg/m3 and 1840 ± 10 kg/m3
1191.7 K	1839 ± 10 kg/m3
1191.8 K	1840 ± 10 kg/m3
1192.2 K	1839 ± 10 kg/m3
1192.4 K	1838 ± 10 kg/m3
1192.7 K	1838 ± 10 kg/m3
1192.8 K	1838 ± 10 kg/m3
1193 K	1839 ± 10 kg/m3
1193.8 K	1837 ± 10 kg/m3
1194 K	1838 ± 10 kg/m3
1194.2 K	1837 ± 10 kg/m3
1194.6 K	1837 ± 10 kg/m3
1194.9 K	1837 ± 11 kg/m3
1195.3 K	1836 ± 11 kg/m3
1195.6 K	1835 ± 10 kg/m3 and 1837 ± 10 kg/m3
1195.9 K	1835 ± 10 kg/m3
1196.1 K	1836 ± 10 kg/m3
1196.3 K	1835 ± 10 kg/m3
1196.5 K	1835 ± 10 kg/m3
1197.1 K	1835 ± 10 kg/m3
1197.5 K	1834 ± 10 kg/m3
1197.7 K	1834 ± 11 kg/m3
1197.8 K	1834 ± 11 kg/m3 and 1835 ± 11 kg/m3
1198.1 K	1834 ± 11 kg/m3
1198.4 K	1833 ± 11 kg/m3
1198.9 K	1833 ± 11 kg/m3
1199.6 K	1832 ± 11 kg/m3
1199.9 K	1833 ± 10 kg/m3
1200.2 K	1832 ± 11 kg/m3
1200.5 K	1831 ± 10 kg/m3
1200.7 K	1832 ± 11 kg/m3
1200.8 K	1831 ± 10 kg/m3 and 1832 ± 10 kg/m3
1201.4 K	1830 ± 11 kg/m3
1201.7 K	1830 ± 11 kg/m3 and 1831 ± 11 kg/m3
1202.1 K	1831 ± 11 kg/m3
1202.2 K	1832 ± 11 kg/m3
1202.4 K	1830 ± 11 kg/m3 and 1831 ± 11 kg/m3
1202.9 K	1829 ± 11 kg/m3 and 1831 ± 11 kg/m3
1203 K	1829 ± 11 kg/m3
1203.6 K	1829 ± 11 kg/m3
1203.8 K	1828 ± 11 kg/m3
1203.9 K	1828 ± 11 kg/m3
1204 K	1828 ± 11 kg/m3 and 1829 ± 11 kg/m3
1204.3 K	1828 ± 11 kg/m3
1204.6 K	1827 ± 10 kg/m3
1204.7 K	1827 ± 10 kg/m3
1205 K	1826 ± 11 kg/m3
1205.6 K	1826 ± 11 kg/m3
1205.8 K	1826 ± 11 kg/m3
1206 K	1827 ± 11 kg/m3
1206.3 K	1826 ± 11 kg/m3
1206.6 K	1826 ± 11 kg/m3
1206.7 K	1825 ± 11 kg/m3
1207 K	1826 ± 11 kg/m3
1207.1 K	1825 ± 11 kg/m3
1207.3 K	1824 ± 10 kg/m3
1207.5 K	1825 ± 10 kg/m3
1207.6 K	1824 ± 10 kg/m3
1207.8 K	1824 ± 11 kg/m3
1207.9 K	1825 ± 11 kg/m3
1208.2 K	1824 ± 12 kg/m3
1208.4 K	1823 ± 11 kg/m3
1208.5 K	1823 ± 11 kg/m3
1208.7 K	1822 ± 10 kg/m3
1209.3 K	1823 ± 10 kg/m3
1209.7 K	1823 ± 11 kg/m3
1209.8 K	1823 ± 11 kg/m3
1210.1 K	1821 ± 11 kg/m3
1210.2 K	1822 ± 11 kg/m3
1210.5 K	1821 ± 11 kg/m3
1211 K	1822 ± 11 kg/m3
1211.2 K	1822 ± 11 kg/m3
1211.3 K	1822 ± 11 kg/m3
1211.4 K	1821 ± 11 kg/m3
1211.7 K	1821 ± 11 kg/m3 and 1820 ± 11 kg/m3
1211.8 K	1822 ± 11 kg/m3
1211.9 K	1821 ± 11 kg/m3 and 1819 ± 11 kg/m3
1212.3 K	1820 ± 11 kg/m3 and 1819 ± 11 kg/m3
1212.6 K	1819 ± 11 kg/m3
1212.9 K	1820 ± 11 kg/m3
1213.1 K	1820 ± 11 kg/m3
1213.3 K	1820 ± 11 kg/m3
1213.5 K	1819 ± 11 kg/m3
1213.7 K	1820 ± 11 kg/m3
1213.8 K	1819 ± 11 kg/m3
1214 K	1819 ± 12 kg/m3 and 1818 ± 12 kg/m3
1214.2 K	1817 ± 11 kg/m3
1214.6 K	1819 ± 11 kg/m3
1214.7 K	1819 ± 11 kg/m3
1215.1 K	1819 ± 11 kg/m3
1215.2 K	1819 ± 11 kg/m3 and 1816 ± 11 kg/m3
1215.5 K	1818 ± 11 kg/m3
1215.6 K	1816 ± 11 kg/m3
1216 K	1815 ± 12 kg/m3
1216.7 K	1814 ± 11 kg/m3
1217 K	1814 ± 11 kg/m3
1217.5 K	1813 ± 12 kg/m3
1218.2 K	1813 ± 11 kg/m3
1218.7 K	1812 ± 11 kg/m3
1219.2 K	1811 ± 13 kg/m3 and 1812 ± 12 kg/m3
1220.3 K	1810 ± 11 kg/m3
1220.6 K	1809 ± 13 kg/m3
1220.9 K	1810 ± 13 kg/m3
1221.8 K	1809 ± 11 kg/m3
1222.2 K	1808 ± 11 kg/m3
1222.3 K	1808 ± 11 kg/m3
1222.7 K	1807 ± 12 kg/m3
1223.3 K	1807 ± 11 kg/m3
1223.7 K	1805 ± 12 kg/m3
1223.8 K	1806 ± 11 kg/m3
